Laboratory results: patent US6316423A, “Method of treating ischemic, hypoxic and anoxic brain damage” (priority 1999, dated 2001)
pKi: −log10 of the molar value. “Also recorded” adds a separate entry of the source.

What was measured:
[1] = system: microtubule associated protein 2 (MAP-2); test: MAP-2 preservation in CA1 after 10 minute ischemia, postischemic ADAC; assay type: in vivo, gerbil; conditions: 100 μg/kg at 2, 6 or 12 h postischemia
Excerpt: Animals were allowed to survive either 2 or 7 days. They were then perfused with a freshly made 3.5 solution of paraformaldehyde in phosphate buffered saline (pH 7.4). After removal, brains were cut at 40 μm, and the sections were stained immunohistochemically with a monoclonal MAP-2 antibody (Sigma) diluted 1:500-1000. Standard peroxidase anti-peroxidase procedure of ABC complex with Vector kit (Hsu et al., 1981) intensified with heavy metal (Adams, 1981) was used. For immunofluorescent studies, the sections were incubated at 4° C. with the primary antibody overnight. Following three 5-10 minute washes, the sections were exposed to the secondary antibodies, i.e., fluorescein isothiocyanate, rhodamine isothiocyanate, and Texas Red conjugated goat anti-mouse IgG. The secondary antibodies were diluted at 1:20-100 in 0.1M phosphate buffer. Qualitative morphological and immunostaining characteristics of the sections were studied using an epifluorescent microscope (Nikon Labophot) equipped with filters (Nikon B2 and Nikon G1B) appropriate for the detection of the secondary antibodies.
Quantitative analysis of MAP-2 presence in the dendritic fields of CA1 was made using a computer image analysis system (Biographics Inc., Winston-Salem, N.C.).

[2] = system: gerbils exposed to 10 minutes of ischemia; test: Survival rate following 10 minutes of ischemia, postischemic ADAC; assay type: in vivo, gerbil
Description: In the three remaining treatment groups (i.e., 3, 6, and 12 hours) numerical improvement was apparent, but statistical significance of (P<0.05) was lost probably owing to the sample sizes. […] To prevent selection of overly robust animals into these groups, the data were not normalized to account for pre-treatment mortalities.

[3] = Open field locomotor activity in nonischemic gerbils; assay type: in vivo, gerbil; conditions: 0.1 mg/kg (100 μg/kg)
[4] = system: gerbils exposed to 10 minutes of brain ischemia; test: Mortality after 10 min ischemia, preischemic ADAC; assay type: in vivo, gerbil; conditions: 0.1 mg/kg preischemic, entire monitoring period (14 days); control 60%
Description: Seven control animals out of 20 (35%) died during the initial 12 hour period following 10 minutes of ischemia. Three additional control gerbils died between day 1 and 3, and 2 additional animals died 5-8 hours following a water maze trial by day 14. Thus, the overall death rate of the control group was 60%. In contrast, in the ADAC-treated group only 2 animals out of 10 died (20%) during the entire monitoring period, one on day 3 and one on day 6.
Prior to subjecting the gerbils to 10 minutes of ischemia, the gerbils were randomly divided into the control and the drug testing groups. […] During post-ischemic recovery, animals were monitored each day for signs of functional damage (e.g., pareses) that might affect their subsequent water maze performance. Postischemic mortality was also monitored every day.

[5] = target: Rat A2 adenosine receptor; test: Affinity for A2 adenosine receptor isolated from rats; assay type: binding; conditions: rat A2 adenosine receptors; read-out: Ki for Rat A2 Receptors (printed K1)
Excerpt: Table 3 below indicates the structure and Ki values for these compounds. Thus, each of these compounds is expected to find utility in the context of the present invention. The five analogues indicated within Table 3 are given for the purposes of illustrating the nature of ADAC-analogues and is not meant to be comprehensive. Additionally, these compounds can be synthesized using a similar approach as the one employed for ADAC. These methods are known in the art. For example, the synthesis of these compounds can be guided by U.S. Pat. No. 5,248,770 or by Jacobson et al., Journal of Medicinal Chemistry, 28, 1341-1346 (1985).

[6] = 0.1 mg/kg ADAC 15 min post ischemia
[7] = 0.1 mg/kg ADAC 30 min post ischemia
[8] = 0.1 mg/kg ADAC 2 hour post ischemia
[9] = 0.1 mg/kg ADAC 3 hour post ischemia
[10] = 0.1 mg/kg ADAC 6 hour post ischemia
[11] = 0.1 mg/kg ADAC 12 hour post ischemia

NCCNC(=O)Cc1ccc(NC(=O)Cc2ccc(Nc3ncnc4c3ncn4[C@@H]3O[C@H](CO)[C@@H](O)[C@H]3O)cc2)cc1 [ADAC]
loss of MAP-2 density in CA1 ([1]; 2 days after ischemia, control 50% loss): no loss
decrease of MAP-2 density in CA1 ([1]; 7 days after occlusion): approximately 15%
Survival Rate 24 h postischemia [2, 6]: 100%
Survival Rate 14 days postischemia [2, 6]: 70%
Survival Rate 24 h postischemia [2, 7]: 100%
Survival Rate 14 days postischemia [2, 7]: 90%
Survival Rate 24 h postischemia ([2]; 0.1 mg/kg ADAC 1 hour post ischemia): 80%
Survival Rate 24 h postischemia [2, 8]: 80%
Survival Rate 14 days postischemia [2, 8]: 80%
Survival Rate 24 h postischemia [2, 9]: 60%
Survival Rate 14 days postischemia [2, 9]: 50%
Survival Rate 24 h postischemia [2, 10]: 50%
Survival Rate 14 days postischemia [2, 10]: 50%
Survival Rate 24 h postischemia [2, 11]: 60%
Survival Rate 14 days postischemia [2, 11]: 50%
behavioral changes by open field locomotor activity testing [3]: does not induce behavioral changes; also recorded: did not induce any behavioral changes
death rate [4]: 20%
pKi [5]: 6.68
